# “And” between values parts separate entries of the source, which are not always exact repeats. Identical values can stand only once. Numbers after ± are expanded uncertainties.
# Tests used:
# [1] = refractive index (Na D-line) (dimensionless); conditions: 298.2 K; 101.33 kPa; Liquid; Standard Abbe refractometry
# [2] = 298.2 K; 101.33 kPa; Liquid; Vibrating tube method
# [3] = refractive index (Na D-line) (dimensionless); wn = mass fraction of the nth substance listed; conditions: 298.2 K, 81.5 kPa, Liquid, Standard Abbe refractometry
Structure (SMILES),refractive index [1],mass density [2],refractive index ([3]; w2 = 0.0006),refractive index ([3]; w2 = 0.0008),refractive index ([3]; w2 = 0.0009),refractive index ([3]; w2 = 0.001),refractive index ([3]; w2 = 0.0016),refractive index ([3]; w2 = 0.9996)
CC(C)c1ccccc1 [isopropylbenzene],1.49005 ± 0.0014,857.54 ± 1.7 kg/m3,–,–,–,–,–,–
CC(C)c1ccccc1 [isopropylbenzene] + O,–,–,1.48845 ± 0.0014,1.48875 ± 0.0014 and 1.48855 ± 0.0014,1.49001 ± 0.0014,1.4885 ± 0.0014,1.48855 ± 0.0014,1.333 ± 0.0014
O [water],1.3325 ± 0.0014,–,–,–,–,–,–,–

# From the NIST ThermoML archive (doi:10.1021/acs.jced.8b01202)
